The values below come from patent US20220064238A1, “Methods And Compositions For Modifying Transcription Factor Activity by Targeting The Human Mediator Complex Using Cell Penetrating Memetic Peptides And Methods of Treating Cancer Using The Same” (The Regents of the University of Colorado, a body corporate, priority 2020, published 2022).

The subject of experiment [1] is p53-target genes in HCT116 cells. The experiment in a line: RT-qPCR of p53 target genes in HCT116 cells. Format: cell-based, human. The conditions noted are these: HCT116, 3-hour Nutlin treatment. How it is done: (§1) Experimental time frame for RNA-Seq experiments: In a series of experiments in SJSA cells, we initially tested whether the bivalent peptide could cause a phenotypic change. […] We next determined that a 6-hour Nutlin treatment time was the shortest that would still trigger significant SJSA cell death within 24-48 hours. However, we obtained similar results with 6-hour (or 12-hour) Nutlin treatment times (±bivalent peptide). We then tested the prospect of RNA-Seq experiments, in hopes that gene expression changes and shorter time frames would allow an assessment of bivalent peptide effects. Here, we used HCT116 cells, which show strong transcriptional response to Nutlin (Allen et al., 2014). For RNA-Seq experiments, we needed a time frame long enough to allow accumulation of p53 target gene mRNAs but short enough to enable maximum activity of the bivalent peptide (e.g. prior to its secretion, export, and/or degradation). Using RT-qPCR assays, we confirmed that a 3-hour Nutlin treatment was a minimum amount of time to reliably detect induction of p53 target genes. […] RNA-Seq data have been uploaded on GEO: GSE135870.
In general terms: In qPCR the cycle at which signal appears reflects the starting amount.

Another experiment concerns SJSA cells. The experiment can be described thus: SJSA cell death after Nutlin treatment (CellTiter-Glo). The experiment is classed as cell-based. Conditions: 24-hour Nutlin 10 μM. How it is done:
as §1
A general note: In ATP-based viability assays light output follows the ATP content of the culture.

Experiment [2] deals with p53 target genes in HCT116 cells. The experiment can be described thus: RNA-Seq / GSEA in HCT116 cells, p53 pathway genes. The experiment is classed as cell-based, human. How it is done:
To circumvent this issue, we used a well-tested electroporation protocol to enhance cell uptake of the bivalent peptide (see Methods). HCT116 cells were evaluated either in the presence of bivalent peptide or vehicle (water), with or without Nutlin-3a (FIG. 3A, B). Nutlin-3a is a small molecule that activates and stabilizes p53 by inhibiting MDM2, a repressor of p53. […] After 3 h Nutlin-3a treatment (or DMSO control, ±bivalent peptide), nuclear RNA was isolated and biological replicate RNA-Seq libraries were prepared (FIG. 9A; Table 1).
A confounding issue with these experiments was that cellular uptake of the bivalent peptide could not be accurately measured and could potentially vary from experiment-to-experiment. To assess this possibility more thoroughly, we completed an additional round of RNA-Seq experiments in control vs. Nutlin-treated HCT116 cells (FIG. 9B; Table 1). These additional experiments (RNA-Seq experiment 2) were completed with a slightly modified protocol that included treatment in serum-free media as an effort to enhance peptide uptake. Importantly, the data from RNA-Seq experiment 2 (biological triplicate; FIG. 10) were consistent with the first series of biological replicates (RNA-Seq experiment 1; FIG. 3C-E) and in each case, repression of p53-dependent transcription by the bivalent peptide tracked with Nutlin induction levels (FIG. 9CE). Nutlin-induced activation of p53 target genes was inhibited in the presence of the bivalent peptide, providing further evidence that the bivalent peptide blocks p53 response in cells. However, the scope and magnitude of the effect was reduced in this second, independent set of RNA-Seq experiments (e.g. compare FIG. 3C, D & FIG. 10C, D). This broadly consistent but variable magnitude effect can also be seen from RNA-Seq reads at specific p53 target genes (RNA-Seq experiment 1, FIG. 4A, B; RNA-Seq experiment 2, FIG. 4C, D). The overall p53 response to Nutlin-3a was reduced in RNA Seq experiment 2 (GSEA p53 pathway NES=2.76 in RNA-Seq experiment 1 vs. NES=1.59 in RNASeq experiment 2), which therefore reduced the transcriptional impact of the bivalent peptide. However, we cannot rule out variable cellular uptake of the bivalent peptide as a contributing factor.
Electroporation of bivalent peptide into HCT116 cells (RNA-Seq experiment 1): Two 6-well plates (HCT116 cells) were grown to about 80% confluency. Cells were then trypsinized, washed with PBS, and resuspended in 150 μL Neon Buffer R. The cells were then split into two groups: No peptide and 10 μM peptide. The cells were then drawn into a 10 μL Neon pipet tip, electroporated and ejected into 2 mL of McCoy's 5A media without antibiotic. For each experiment, two cell electroporation aliquots were added to media containing either 0.1% DMSO (control) or 10 μM Nutlin-3a (in DMSO, to a final concentration of 0.1%). For wells containing cells electroporated with peptide, an additional 200 nM peptide was added to the well to allow for peptide uptake during the experiment. The 6-well plate was then placed back at 37° C. for 3 hours. After 3 hours, cells were scraped from the plates, transferred to a 15 mL conical vial, pelleted at 1,000×g, and washed in 10 mL phosphate buffered saline (PBS) solution. To isolate the nuclei, cells were resuspended in 10 mL lysis buffer (10 mM Tris-HCl, pH 7.4, 2 mM MgCl2, 3 mM CaCl2), 0.5% NP-40, 10% glycerol) and thoroughly mixed. The nuclei were spun down at 1,000×g for 10 minutes, the lysis buffer was removed, and 1 mL of TRIzol was added. The nuclear RNA was isolated as described in the TRIzol instructions, except an additional phenol/chloroform extraction and chloroform-only extraction were performed to reduce contaminants. RNA was precipitated and washed twice with 75% ethanol to further remove contaminants. The RNA was then converted to cDNA using the High Capacity cDNA kit from Thermo Fisher Scientific. […]

Experiment [3] relates to pol II occupancy at the p21 locus. The experiment in a line: ChIP of RNA polymerase II occupancy at CDKN1A (p21). Format: cell-based. Conditions: 3 h post-Nutlin, Ser5-phosphorylated pol II ChIP. An excerpt:
FIGS. 13A-B. Summary of ChIP experiments, showing that RNA polymerase II occupancy at the p53 target gene CDKN1A (p21) is reduced in cells treated with the bivalent peptide (peptide). A) Time course following Nutlin induction, to determine ideal time point to probe pol II occupancy at the p21 locus. […] However, pol II occupancy is reduced in cells treated with the bivalent peptide. […] Pol II phosphorylated at serine-5 of its C-terminal domain was used for ChIP analysis, because this is a proxy for initiating pol II at gene promoters (start sites). Data represent biological triplicates. Similar results were observed genome-wide, using ChIP-seq, although the timing of induction across p53 target genes will vary (data not shown).

Bridge positions count the residues as written; N and C are the ends. Square brackets hold non-standard residues; d marks the D form. Peptide text beside a SMILES is read from it. PEG6 = NCCOCCOCCOCCOCCOCCOCCC(=O)O; R8 = C=CCCCCCC[C@@](C)(N)C(=O)O; S5 = C=CCCC[C@](C)(N)C(=O)O

For `CC[C@H](C)[C@H](NC(=O)[C@H](CC(=O)O)NC(=O)[C@H](CC(=O)O)NC(=O)[C@@H]1CCCN1C(=O)[C@H](CO)NC(=O)[C@H](CC(C)C)NC(=O)CCOCCOCCOCCOCCOCCOCCNC(=O)[C@H](CCCNC(=N)N)NC(=O)[C@H](CCCNC(=N)N)NC(=O)[C@]1(C)CCCC=CCCCCCC[C@@](C)(NC(=O)[C@H](Cc2ccccc2)NC(=O)[C@H](CCCNC(=N)N)NC(=O)[C@H](CCC(=O)O)NC(=O)[C@H](CCC(N)=O)NC(=O)[C@H](CO)NC(=O)[C@H](CCCNC(=N)N)NC(C)=O)C(=O)N[C@@H](CC(=O)O)C(=O)N[C@@H](CC(C)C)C(=O)N[C@@H](Cc2c[nH]c3ccccc23)C(=O)N[C@@H](CCCCN)C(=O)N[C@@H](CCCNC(=N)N)C(=O)N[C@@H](CC(C)C)C(=O)N1)C(=O)N[C@@H](CCC(=O)O)C(=O)N[C@@H](CCC(N)=O)C(=O)N[C@@H](Cc1c[nH]c2ccccc12)C(=O)N[C@@H](Cc1ccccc1)C(=O)N[C@H](C(=O)N[C@@H](CCC(=O)O)C(=O)N[C@@H](CC(=O)O)C(N)=O)[C@@H](C)O` [bivalent peptide] (Ac-RSQERF[R8]DLWKRL[S5]RR[PEG6]LSPDDIEQWFTED-NH2; staple 7-14; N-terminus assumed), in experiment [1], the “activation of p53-target genes by RT-qPCR” value is listed as “blocking activation of p53-target genes”. Besides, the “effect on cell death after Nutlin treatment” value in the experiment with SJSA cells is reported as “no significant effect”. In addition, the “GSEA p53 pathway NES, Nutlin response in peptide-treated cells” value in experiment [2] (RNA-Seq experiment 1, +Nutlin) is reported as 1.97; in experiment [2] (RNA-Seq experiment 2, +Nutlin) it was 0.92. Besides, the “Nutlin-induced activation of p53 target genes in peptide-treated cells” value in experiment [2] (electroporated 10 μM peptide, Nutlin-3a 10 μM, 3 h, HCT116) is “diminished”. In addition, the “p53 activation by peptide alone” value in experiment [2] (no Nutlin, vs. untreated controls, HCT116) was “modest p53 activation”. Besides, in experiment [3], the “pol II occupancy at the p21 locus in peptide-treated cells” value is on record as “reduced”.
